Literature values in article PMC4686915, “An engineered scorpion toxin analogue with improved Kv1.3 selectivity displays reduced conformational flexibility” (Scientific Reports, 2015).
Read-outs that look alike come from different tables or passages of the source.

What was measured:
Kv1.2 = molecular target: Kv1.2
Description: (§1) Anuroctoxin (AnTx, αKTx 6.12) is a peptide toxin of 35 amino acids with a molecular weight of 4082.8, stabilized by four disulphide bridges, which was isolated by our workgroup from the venom of the scorpion Anuroctonus phaiodactylus. […] Our aim was to improve the selectivity of the wild-type toxin for Kv1.3 by site-directed changes in the primary sequence of the peptide. || Figure 1 Sequence comparison of Kv1.2- and Kv1.3-selective toxins. The aligned primary sequences are shown for toxins for which the affinities for both Kv1.2 and Kv1.3 channels were determined. Toxins were classified as Kv1.2-selective, non-selective or Kv1.3-selective based on the ratio of the determined Kd values for the two channels. TEXT PRINTED IN THE PICTURE: maurotoxin: KdKv1.2/KdKv1.3: 0.004; KdKv1.2 (nM): 0.8; KdKv1.3 (nM): 180; selectivity: Kv1.2 | CoTX1: KdKv1.2/KdKv1.3: 0.005; KdKv1.2 (nM): 27; K ... || First we aimed at reproducing the effects of natural anuroctoxin with the wild-type toxin produced by solid-state chemical synthesis, denoted as sAnTx. The blocking effect of sAnTx was first tested on Kv1.3 channels expressed by activated human lymphocytes. Channels were activated by depolarizing pulses to +50 mV to maximize the open probability and pulse duration was limited to 15 ms to minimize inactivation. The use of such short pulses prevented cumulative inactivation and allowed us to record the current amplitude every 15 s giving better temporal resolution of the kinetics of block develo ... || (+ 1 further places)

Kv1.3 [1] = molecular target: T1, Kv1.3 (Homo sapiens, UniProt P22001); set-up: endogenous in cells; conditions: for selectivity class: Figure 1, based on ratio of Kd values for Kv1.2 and Kv1.3, ref not given; for block of Kv1.3, in words: toxins with tyrosine at the aromatic dyad position, ref 10 (ChTx), 13 (Css20), 32 (Tst26), 33 (noxiustoxin), 34 (hongotoxin-1), 30 (Pi1)
Description: as §1, with “(+ 3” for “(+ 1”

Kv1.2 (Homo sapiens) = Kv1.2 (Homo sapiens) (UniProt P16389)
Kv1.3 [2] = molecular target: T1, Kv1.3
hKv1.2 V381H = test system: hKv1.2 V381H
Description: (§2) We first targeted the essential dyad to improve selectivity. […] While the necessity of the dyad lysine was shown for other Kv channels as well[10], the requirement for the aromatic half of the dyad, especially the tyrosine, is not as straightforward for blocking Kv1.3.

hKv1.3 H399T = test system: hKv1.3 H399T
Description: as §2

[3] = Figure 1 sequence comparison, literature toxins, ref not given, read-out: KdKv1.2
[4] = Figure 1 sequence comparison, literature toxins, ref not given
[5] = Figure 1 sequence comparison, literature toxins, ref not given, read-out: KdKv1.3

T1 sequence (P22001 whole entry): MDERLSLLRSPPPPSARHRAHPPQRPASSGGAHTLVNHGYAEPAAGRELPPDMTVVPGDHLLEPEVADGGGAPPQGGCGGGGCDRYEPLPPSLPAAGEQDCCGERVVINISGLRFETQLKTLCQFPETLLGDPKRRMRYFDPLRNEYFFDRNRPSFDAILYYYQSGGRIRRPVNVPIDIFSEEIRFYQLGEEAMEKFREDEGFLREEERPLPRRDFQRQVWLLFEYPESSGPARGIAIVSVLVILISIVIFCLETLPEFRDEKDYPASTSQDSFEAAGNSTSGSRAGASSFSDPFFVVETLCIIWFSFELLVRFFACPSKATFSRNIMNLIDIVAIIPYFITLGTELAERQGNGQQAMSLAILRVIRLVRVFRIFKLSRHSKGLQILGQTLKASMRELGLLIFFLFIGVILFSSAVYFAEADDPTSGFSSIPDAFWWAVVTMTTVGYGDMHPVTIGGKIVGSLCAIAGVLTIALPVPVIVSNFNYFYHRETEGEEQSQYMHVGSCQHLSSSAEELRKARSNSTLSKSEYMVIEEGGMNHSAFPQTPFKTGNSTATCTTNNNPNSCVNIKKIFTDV
Sequence of anuroctoxin (P0C166 whole entry): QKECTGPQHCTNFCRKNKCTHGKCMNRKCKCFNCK
Sequence of Kv1.2 (Homo sapiens) (P16389 whole entry): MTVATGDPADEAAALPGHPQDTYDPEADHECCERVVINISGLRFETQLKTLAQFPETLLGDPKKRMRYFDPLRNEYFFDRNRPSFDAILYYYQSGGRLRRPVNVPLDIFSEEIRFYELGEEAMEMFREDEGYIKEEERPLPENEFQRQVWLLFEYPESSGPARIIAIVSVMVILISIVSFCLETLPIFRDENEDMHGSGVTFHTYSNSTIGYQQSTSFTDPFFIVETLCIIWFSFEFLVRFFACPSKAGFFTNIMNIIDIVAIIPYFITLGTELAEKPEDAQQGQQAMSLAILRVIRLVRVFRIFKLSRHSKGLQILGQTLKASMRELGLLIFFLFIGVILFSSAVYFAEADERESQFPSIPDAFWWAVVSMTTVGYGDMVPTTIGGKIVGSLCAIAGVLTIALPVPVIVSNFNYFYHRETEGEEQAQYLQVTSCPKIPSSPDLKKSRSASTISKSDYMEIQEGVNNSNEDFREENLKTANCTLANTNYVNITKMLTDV

| Substance | Kd (Kv1.2; [3]) | selectivity class (Kv1.3 [1]) | KdKv1.2/KdKv1.3 (Kv1.3 [1]; [4]) | Kd (Kv1.3 [1]; [5]) | block of Kv1.3, in words (Kv1.3 [1]) | Kd (Kv1.2 (Homo sapiens)) | Kd (Kv1.3 [2]) | Kd (Kv1.2; listed as natural toxin, read-out: Kd Kv1.2 of natural anuroctoxin) | Kd (Kv1.3 [1]; listed as natural toxin, read-out: Kd Kv1.3 of natural anuroctoxin) | selectivity of the natural toxin for Kv1.3 over Kv1.2 (Kv1.3 [1]; natural toxin) | MTX binding affinity of hKv1.2 with V381H mutation (hKv1.2 V381H) | MTX sensitivity of Kv1.3 with H399T replacement (hKv1.3 H399T) |
| --- | --- | --- | --- | --- | --- | --- | --- | --- | --- | --- | --- | --- |
| Hongotoxin-1 | 0.17 nM | non-selective (non-selective) | 1.9 | 0.09 nM | nanomolar range | – | – | – | – | – | – | – |
| Noxiustoxin (TIINVKCTSPKQCSKPCKELYGSSAGAKCMNGKCKCYNN; UniProt P08815 1-39, looked up) [scorpion toxin] | 2 nM | non-selective (non-selective) | 2 | 1 nM | nanomolar range | – | – | – | – | – | – | – |
| anuroctoxin (from UniProt P0C166) | – | – | – | – | – | 6.14 nM | 0.73 nM | – | – | – | – | – |
| anuroctoxin [AnTx] | 6 nM | non-selective (non-selective) | 9 | – | – | – | – | 6.1 nM | 0.7 nM | 9 fold | – | – |
| charybdotoxin [ChTx] | 14 nM | non-selective (non-selective) | 5.4 | 2.6 nM | nanomolar range | – | – | – | – | – | – | – |
| kaliotoxin [KTX] | > 1000 nM | Kv1.3 (Kv1.3-selective) | > 1538 | 0.65 nM | – | – | – | – | – | – | – | – |
| maurotoxin | 0.8 nM | Kv1.2 (Kv1.2-selective) | 0.004 | 180 nM | – | – | – | – | – | – | drastically reduced MTX binding affinity | made Kv1.3 sensitive to MTX |
